The values below come from patent US12390440B2, “Immunomodulating trifluoromethyl-aminal azalides” (Zoetis Services LLC, priority 2020, dated 2025).

SMILES strings stand for the structures. In brackets after ≈: the same amount, converted by molar mass.

Experiment [1] deals with P. multocida 46572. Put plainly: In vivo mouse lung infection challenge model (murine efficacy). Conditions: mouse, in vivo. The protocol: The challenge organism was P. multocida 46572. Target challenge concentration was 5×10^2 CFU/mouse. Isolated colonies from overnight growth (37° C. with 5% CO2) on trypticase soy agar (TSA II) blood plates were transferred to room temperature Brain Heart Infusion Broth (BHIB). The broth culture was incubated 3.5-4 hours to approximately mid-log phase of growth, as measured by forward light scatter at 600 nm (OD600, 0.200). The culture was centrifuged to collect the bacterial pellet. The pellet was re-suspended in BHIB and adjusted to provide an approximate concentration of 2.7 log^10 colony forming units (CFU) in 0.04 mL at the highest concentration. The challenge inoculum concentration was confirmed by serial dilutions of the inoculum for CFU enumeration. On Day −5, CD-1 female mice were received. Mice were given standard rodent diet and water ad libitum. On Day 0, bacterial inoculum (0.04 mL) was administered to each mouse (n=36) intranasally. Compounds of the invention were dosed at 20 mg/kg (0.1 mL) in a buffered (˜pH 5.4) propylene glycol, monothioglycerol and water solution by subcutaneous injection. Animals were observed from Days 1-10. The study was terminated on Day 10. In addition, some treatment groups were sampled at 6, 24, and 48 hours post bacterial challenge for RNA sequence analysis of lung tissue.
The murine efficacy model (P. multocida challenge) was optimized, and the treatment group size was powered to be able to observe statistically significant improvement of survival to expected ranges for immunomodulatory compounds. The experimental design was a randomized complete block design. Mice were individually identified and treatment groups comingled within a cage, with every treatment group equally represented across cages. Mortality was the primary variable. Mortality data was analyzed using a generalized mixed model with fixed effect of treatment and random effect of block. Survival time was also analyzed using the SAS PHREG (survival analysis) procedure to examine whether there were significant differences between treatment groups and the control group. Numerous compounds of the invention and M9 (positive control) were tested in this model at a dose of 20 mg/kg (Table 3). Typical percent survival for no treatment control is in the range of 0-20% based on study to study variation in challenge inoculum and rate of infection. […] Mouse survival for M9 was about 90-100%, further supporting its residual antibacterial properties against the bacterial strain. Harmonized survival accounts for % survival relative to vehicle (“−” control) and M9 (“+” control)) survival data (Table 3).

Experiment [2] has as its system BRD. In words: Separate study, M9 versus saline control: lung lesions and mortality. Type of experiment: in vivo. The note with it: 10 mg/kg.
The target in experiment [3] is NLRX1 (Bos taurus, UniProt A7MB19). In words: Drug/protein binding partner, SPR: NLRX1. On the set-up: species or system bovine. Conditions: PBMCs. The protocol: To further characterize the direct activity of the compounds of the invention, experiments to identify the drug's direct binding host partners(s) were performed with the aim of identifying the potential biological targets. Bovine primary cells (peripheral blood mononuclear cells [PBMCs] and polymorphonuclear cells [PMN/neutrophils]) and tissue (trachea, lung) protein homogenates were mixed with M9 and the macrolide, gamithromicin as a comparator. Tissue interactions were allowed to form using a heterogeneous assembly method (nematic protein organization technique, NPOT; Inoviem Scientific); and traditional western blots to identify native-structure proteins bound to the compound. Mass spectrometry analysis identified eight proteins involved in the interaction with M9 as compared to gamithromycin. The antibacterial macrolide gamithromycin was used as a comparator to differentiate specific binding to M9. These proteins were considered to be either direct binding partners of the drug or closely involved in the drug:target interaction (Table 6).
Sequence of NLRX1 (A7MB19 1-973): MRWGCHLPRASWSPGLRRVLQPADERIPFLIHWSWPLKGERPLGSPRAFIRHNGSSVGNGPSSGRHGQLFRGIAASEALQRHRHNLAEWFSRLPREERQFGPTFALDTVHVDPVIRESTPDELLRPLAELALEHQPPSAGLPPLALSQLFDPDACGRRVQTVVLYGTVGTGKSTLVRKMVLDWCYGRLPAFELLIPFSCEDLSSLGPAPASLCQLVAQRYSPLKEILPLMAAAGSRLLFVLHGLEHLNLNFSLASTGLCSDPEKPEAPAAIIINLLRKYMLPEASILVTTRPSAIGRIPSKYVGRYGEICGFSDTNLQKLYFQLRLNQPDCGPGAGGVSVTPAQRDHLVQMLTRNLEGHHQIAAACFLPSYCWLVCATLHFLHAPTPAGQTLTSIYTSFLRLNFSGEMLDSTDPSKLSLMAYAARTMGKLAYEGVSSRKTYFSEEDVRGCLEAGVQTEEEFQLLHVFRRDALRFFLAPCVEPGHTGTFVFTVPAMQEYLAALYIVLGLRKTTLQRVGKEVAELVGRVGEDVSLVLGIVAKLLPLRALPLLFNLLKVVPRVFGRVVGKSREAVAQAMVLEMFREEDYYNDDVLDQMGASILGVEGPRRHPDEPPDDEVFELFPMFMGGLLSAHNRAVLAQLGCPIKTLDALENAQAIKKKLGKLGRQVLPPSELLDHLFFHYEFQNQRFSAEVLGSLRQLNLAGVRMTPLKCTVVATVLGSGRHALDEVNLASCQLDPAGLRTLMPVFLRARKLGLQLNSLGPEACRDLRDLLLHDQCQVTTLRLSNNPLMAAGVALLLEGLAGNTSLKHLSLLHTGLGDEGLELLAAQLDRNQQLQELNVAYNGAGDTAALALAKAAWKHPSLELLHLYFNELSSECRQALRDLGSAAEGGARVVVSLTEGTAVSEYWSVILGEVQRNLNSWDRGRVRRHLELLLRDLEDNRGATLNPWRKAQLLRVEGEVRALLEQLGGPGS
In order to add further clarity to binding partner identification, surface plasma resonance (SPR) technology was used. […]
KD is the equilibrium dissociation constant that was used to present the drug/target affinity. The identified targets associated with drug were measured by surface plasmon resonance (SPR) to define the KD.

The subject of experiment [4] is S. aureus. Put plainly: MIC, S. aureus. The note with it: Staphylococcus aureus.

Turning to `CCCNC[C@]1(O)[C@H](C)O[C@@H](O[C@H]2[C@H](C)[C@@H](O[C@@H]3O[C@H](C)C[C@H](NC)[C@H]3O)[C@](C)(O)C[C@@H](C)CN[C@H](C)[C@@H](O)[C@](C)(O)[C@@H](CC)OC(=O)[C@@H]2C)C[C@@]1(C)OC` [Example M9, (2R,3S,4R,5R,8R,10R,11R,12S,13S,14R)-2-ethyl-3,4,10-trihydroxy-13-(((2R,4R,5S,6S)-5-hydroxy-4-methoxy-4,6-dimethyl-5-((propylamino)methyl)-tetrahydro-2H-pyran-2-yl)oxy)-11-(((2S,3R,4S,6R)-3-hydroxy-6-methyl-4-(methylamino)tetrahydro-2H-pyran-2-yl)oxy)-3,5,8,10,12,14-hexamethyl-1-oxa-6-azacyclopentadecan-15-one], in experiment [1], the “clinical efficacy in P. multocida infection in mice” value is listed as “clinically efficacious”. In experiment [2] (versus saline control 31%, p=0.023), this compound yielded a lung lesions of 20%. Further, the Mortality in experiment [2] (versus saline control 38.9%, p=0.025) is reported as 13%. In addition, the “Interaction KD” value in experiment [3] was “Indirect”. This compound returned a minimum inhibitory concentration (MIC) in experiment [4] of 64 µg/mL (≈ 80.8 µM).
